Earlier results as cited in EP4257117A1, “SUSTAINED-RELEASE PHARMACEUTICAL COMPOSITION OF FULVESTRANT AND METHOD FOR PREPARING SAME” (Samyang Holdings Corporation, priority 2020, dated 2022).
Like-named read-outs stand apart in the source and are kept apart here.

Tests used:
[1] = in pure water, according to FDA data
[2] = according to the prescription of Faslodex Injection

**Q.** With C[C@]12CC[C@@H]3c4ccc(O)cc4C[C@@H](CCCCCCCCC[S+]([O-])CCCC(F)(F)C(F)(F)F)[C@H]3[C@@H]1CC[C@@H]2O (stereo partly drawn) [Fulvestrant, 7-alpha-[9-(4,4,5,5,5-pentafluoropentylsulphinyl)nonyl]estra-1,3,5-(10)-triene-3,17beta-diol] as the molecule, how does the “solubility in aqueous solution” value [1] read?
**A.** practically insoluble

**Q.** What about the “saturation solubility of Fulvestrant” value ([2]; at room temperature) of the same molecule?
**A.** about 90 mg/mL

**Q.** And the “saturation solubility of Fulvestrant” value ([2]; in refrigerated storage)?
**A.** about 65 mg/mL
